Series [1] is described as follows: Particle size distribution by laser diffraction (Mastersizer 2000). Type of series: physicochemical. Here is the method: In the invention, Dpn is a unit referring to a particle size of crystal, and n is a value covering from 1 to 100. For example, Dp10 is defined as a diameter of the particle where particles are accumulated from the one having a smaller size and reach to the accumulated particle volume of 10%.
Add 1000 mL of water to 5 g of Triton X-100, mix well. Add 0.1 g of bicalutamide and sonicate for 15 minutes, the filter using 0.45 μm membrane filter and use this solution as the dispersant. Rinse the dispersion unit and the measurement instrument with the dispersant and replace it in the instruments with the fresh one, then measure background. After weighing, suspend about 0.05 g of bicalutamide crystals in the 20 ml of dispersant and sonicate for 5 minutes, and make up with the dispersant to 100 mL. Redisperse this suspension with a pipet and pour this sample into the dispersion unit so that an obscuration is 10.0 to 20.0%. After the stabilizing period of 12 minutes, start the measurement under the following condition. Determine 10% diameter, 50% diameter, and 90% diameter according to an integrated distribution curve to be Dp10, Dp50 and Dp90, respectively.
• Instrument model: Laser diffraction particle size analyzer Mastersizer 2000 (Malvern) • Dispersion unit: Hydro2000S • Stirrer speed of dispersion unit: 2300 rpm • Particle Refraction Index of sample: 1.670 Absorption: 0.001 • Dispersant Refraction Index: 1.330 • Analysis model: General purpose • Calculation sensitivity: Enhanced • Particle shape: Irregular • Size range: 0.020-2000.000 μm • Measurement integration period: 12 seconds • Backgroupd integration period: 12 seconds (Specific Surface Area)
With using the above-mentioned laser diffraction particle size distribution analyzer (Mastersizer 2000 (Malvern)), a particle size distribution was measured under the same conditions mentioned above.

Series [2] in a line: Specific surface area by nitrogen gas absorption (BET equation, COULTER SA3100). Type of series: physicochemical. On the procedure:
The specific surface area in the invention is defined as a surface area per 1 g of particles, and represented by a value measured by the following method.
A sample is deaerated overnight in a vacuum dryer at 40° C. as a pre-treatment before being subjected to a measurement. The measurement is conducted as follows: a given amount of an absorbing gas (nitrogen gas) is absorbed by a sample, the values of a relative pressure (P/PO) and an absorbed gas volume are determined in each absorption step, and then a specific surface area is calculated according to the BET equation using the values. COULTER™ SA3100™ Series Surface Area and Pore size Analyzer is used as a measurement device. After measuring the sample mentioned above, the specific surface area at around the relative pressure of 0.05 to 0.2 is calculated.
Furthermore, the specific surface area of the crystals obtained by one time milling was measured with the COULTER™ SA3100™ Series Surface Area and Pore size Analyzer mentioned above under the same conditions mentioned above.

[3] abbreviates: crystals as obtained by crystallization, not milled.
[4] abbreviates: crystals obtained by two times milling (CT-401 ATOMIZER).
[5] abbreviates: crystals obtained by one time milling (spiral jet-mill 50AS).

The text below walks through data of patent US7632971B2, “Method of crystallization of bicalutamide” (Sumitomo Chemical Company, Limited, priority 2004, dated 2009).

Regarding `CC(O)(CS(=O)(=O)c1ccc(F)cc1)C(=O)Nc1ccc(C#N)c(C(F)(F)F)c1` (centres unmarked) [Comparative Example 1, bicalutamide], in series [1] (setting [3]), the “Dp10 (particle size)” value turned out to be 45.6 μm, the “Dp50 (particle size)” value was 90.7 μm and the “Dp90 (particle size)” value was 177.6 μm. Further, in series [1] (setting [4]), the “Dp10 (particle size)” value was determined as 3.1 μm, the “Dp50 (particle size)” value was 15.9 μm and the “Dp90 (particle size)” value is 57.8 μm.

In series [2] (setting [3]), `CC(O)(CS(=O)(=O)c1ccc(F)cc1)C(=O)Nc1ccc(C#N)c(C(F)(F)F)c1` (centres unmarked) [Comparative Example 2, bicalutamide] registered a specific surface area of 0.2 m^2/g. In series [1] (setting [3]), the “Dp10 (particle size)” value was determined as 39.5 μm, the “Dp50 (particle size)” value amounted to 119.6 μm and the “Dp90 (particle size)” value is given as 273.1 μm.

For the compound `CC(O)(CS(=O)(=O)c1ccc(F)cc1)C(=O)Nc1ccc(C#N)c(C(F)(F)F)c1` (centres unmarked) [Example 1, bicalutamide], in series [2] (crystals obtained by one time milling, relative pressure 0.05 to 0.2), the specific surface area is on record as 1.8 m^2/g. Besides, in series [1] (setting [3]), the “Dp10 (particle size)” value came to 5.3 μm, the “Dp50 (particle size)” value was found to be 14.5 μm and the “Dp90 (particle size)” value was 30.6 μm. In series [1] (setting [5]), the “Dp10 (particle size)” value came to 1.8 μm, the “Dp50 (particle size)” value is listed as 4.2 μm and the “Dp90 (particle size)” value is listed as 10.5 μm.

Consider `CC(O)(CS(=O)(=O)c1ccc(F)cc1)C(=O)Nc1ccc(C#N)c(C(F)(F)F)c1` (centres unmarked) [bicalutamide], for which, in series [1] (setting [3]), the “Dp10 (particle size)” value was found to be 45.6 μm, the “Dp50 (particle size)” value was determined as 90.7 μm and the “Dp90 (particle size)” value came out at 177.6 μm.
